≈ marks a conversion by molar mass, not a printed value.
Assays:
D. pneumoniae SS 23 [1] = type: cell-based; settings: Brain Heart Infusion, estolate and RV11-RV15 previously hydrolized, unit assumed
E. coli SS 04 = type: cell-based; settings: Brain Heart Infusion, estolate and RV11-RV15 previously hydrolized, unit assumed
Staph. aureus SS 07 [2] = assay: Experimental infection induced by Staph. aureus SS 07; type: in vivo, Swiss white mice; settings: Staphylococcus aureus, SS07, in Mus musculus, po, 168 h, os; Staph. aureus SS 07; mg/kg of erythromycin; survival after 7 days; read-out: ED50 (reliability limits)
Protocol: (§1) Swiss white mice of 20 g body weight were used, infected by parenteral administration of lethal amounts of pathogenic […] of Staph. aureus SS 07 and D. pneumoniae SS 23.
(§2) The antibiotics were administered at the time of injecting the infecting germ and 6 and 24 hours later. On the basis of the survival after 7 days, the ED50 values were determined, as reported in the following table II and III, wherein the reliability limits are indicated in brackets.

B. subtilis SS 127 = type: cell-based; settings: Brain Heart Infusion, estolate and RV11-RV15 previously hydrolized, unit assumed
D. pneumoniae SS 23 [3] = assay: Experimental infection induced by D. pneumoniae SS 23; type: in vivo, Swiss white mice; settings: Streptococcus pneumoniae, SS23, in Mus musculus, po, 168 h, os; D. pneumoniae SS 23; mg/kg of erythromycin; survival after 7 days; read-out: ED50 (reliability limits)
Protocol: as §1, §2

Citrobacter SS 09 = type: cell-based; settings: Brain Heart Infusion, estolate and RV11-RV15 previously hydrolized, unit assumed
Pr. mirabilis SS 09 = type: cell-based; settings: Brain Heart Infusion, estolate and RV11-RV15 previously hydrolized, unit assumed
B. anthranis SS 08 = type: cell-based; settings: Brain Heart Infusion, estolate and RV11-RV15 previously hydrolized, unit assumed
[4] = Hematic levels in the rat (absorption by oral route); settings: 100 mg/kg as erythromycin, average, 100 mg/kg
Kl. aerogenes SS 71 = type: cell-based; settings: Brain Heart Infusion, estolate and RV11-RV15 previously hydrolized, unit assumed
C. albicans SS 04 = type: cell-based; settings: Brain Heart Infusion, estolate and RV11-RV15 previously hydrolized, unit assumed
S. infantis SS 08 = type: cell-based; settings: Brain Heart Infusion, estolate and RV11-RV15 previously hydrolized, unit assumed
H. pertussis SS 03 = type: cell-based; settings: Brain Heart Infusion, estolate and RV11-RV15 previously hydrolized, unit assumed
S. lutea ATCC 9341 = type: cell-based; settings: Brain Heart Infusion, estolate and RV11-RV15 previously hydrolized, unit assumed
Staph. albus SS 03 = type: cell-based; settings: Brain Heart Infusion, estolate and RV11-RV15 previously hydrolized, unit assumed
Staph. aureus SS 09 = type: cell-based; settings: Brain Heart Infusion, estolate and RV11-RV15 previously hydrolized, unit assumed
E. coli SS 05 = type: cell-based; settings: Brain Heart Infusion, estolate and RV11-RV15 previously hydrolized, unit assumed
Strept. faecalis SS 19 = type: cell-based; settings: Brain Heart Infusion, estolate and RV11-RV15 previously hydrolized, unit assumed
Citrobacter SS 05 = type: cell-based; settings: Brain Heart Infusion, estolate and RV11-RV15 previously hydrolized, unit assumed
S. heidelberg SS 18 = type: cell-based; settings: Brain Heart Infusion, estolate and RV11-RV15 previously hydrolized, unit assumed
B. cereus ATCC 11778 = type: cell-based; settings: Brain Heart Infusion, estolate and RV11-RV15 previously hydrolized, unit assumed
Br. abortus SS 7 = type: cell-based; settings: Brain Heart Infusion, estolate and RV11-RV15 previously hydrolized, unit assumed
Ps. aeruginosa SS 10 = type: cell-based; settings: Brain Heart Infusion, estolate and RV11-RV15 previously hydrolized, unit assumed
B. anthranis SS 09 = type: cell-based; settings: B. anthranis SS 09 (14 bis); Brain Heart Infusion; estolate and RV11-RV15 previously hydrolized; unit assumed
B. subtilis ATCC 6633 = type: cell-based; settings: Brain Heart Infusion, estolate and RV11-RV15 previously hydrolized, unit assumed
C. diphtheriae SS 19 = type: cell-based; settings: Brain Heart Infusion, estolate and RV11-RV15 previously hydrolized, unit assumed
Br. melitensis SS 19 = type: cell-based; settings: unit assumed
E. coli SS 06 = type: cell-based; settings: Brain Heart Infusion, estolate and RV11-RV15 previously hydrolized, unit assumed
E. coli SS 07 = type: cell-based; settings: Brain Heart Infusion, estolate and RV11-RV15 previously hydrolized, unit assumed
[5] = test system: Strept. haemolyticus SS 18; type: cell-based; settings: Brain Heart Infusion, estolate and RV11-RV15 previously hydrolized, unit assumed
Staph. aureus SS 08 = type: cell-based; settings: Brain Heart Infusion, estolate and RV11-RV15 previously hydrolized, unit assumed
E. aerogenes SS 011 = type: cell-based; settings: Brain Heart Infusion, estolate and RV11-RV15 previously hydrolized, unit assumed
Kl. pneumoniae SS 04 = type: cell-based; settings: Brain Heart Infusion, estolate and RV11-RV15 previously hydrolized, unit assumed
Text: (§3) In the following table I the MIC/ml values are indicated corresponding to the lowest concentration capable of inducing a complete inhibition of the bacterial development.

H. tubercolosis SS 03 = type: cell-based; settings: Brain Heart Infusion, estolate and RV11-RV15 previously hydrolized, unit assumed
Text: as §3

Staph. aureus SS 07 [6] = type: cell-based; settings: Brain Heart Infusion, estolate and RV11-RV15 previously hydrolized, unit assumed
E. cloacae SS 07 = type: cell-based; settings: Brain Heart Infusion, estolate and RV11-RV15 previously hydrolized, unit assumed
H. influentiae SS 02 = type: cell-based; settings: Brain Heart Infusion, estolate and RV11-RV15 previously hydrolized, unit assumed
[7] = test system: Strept. haemolyticus SS 17; type: cell-based; settings: Brain Heart Infusion, estolate and RV11-RV15 previously hydrolized, unit assumed
Acute toxicity = type: in vivo; settings: mouse, in vivo, po; os; mortality 10 days after treatment; mice; read-out: LD50 (reliability limits)
Protocol: The acute toxicity was assessed in Swiss white mice by oral and intravenous route. The LD50 values have been calculated by the methods of Probits, starting from the mortality recorded 10 days after the treatment.

Staph. albus SS 04 = type: cell-based; settings: Brain Heart Infusion, estolate and RV11-RV15 previously hydrolized, unit assumed
Sr. marcescens SS 03 = type: cell-based; settings: Brain Heart Infusion, estolate and RV11-RV15 previously hydrolized, unit assumed
Cl. tetani SS 17 = type: cell-based; settings: Brain Heart Infusion, estolate and RV11-RV15 previously hydrolized, unit assumed
N. gonorreae SS 27 = type: cell-based; settings: Brain Heart Infusion, estolate and RV11-RV15 previously hydrolized, unit assumed
N. meningitidis SS 04 = type: cell-based; settings: Brain Heart Infusion, estolate and RV11-RV15 previously hydrolized, unit assumed
Staph. aureus SS 10 = type: cell-based; settings: Brain Heart Infusion, estolate and RV11-RV15 previously hydrolized, unit assumed
Pr. vulgaris SS 10 = type: cell-based; settings: Brain Heart Infusion, estolate and RV11-RV15 previously hydrolized, unit assumed

CC[C@H]1OC(=O)[C@H](C)[C@@H](O[C@H]2C[C@@](C)(OC)[C@@H](O)[C@H](C)O2)[C@H](C)[C@@H](O[C@@H]2O[C@H](C)C[C@H](N(C)C)[C@H]2O)[C@](C)(O)C[C@@H](C)C(=O)[C@H](C)[C@@H](O)[C@]1(C)O [erythromycin]
MIC (D. pneumoniae SS 23 [1]): 0.05 µg/mL (≈ 0.0681 µM)
MIC (E. coli SS 04): 100 µg/mL (≈ 136 µM)
ED50 (Staph. aureus SS 07 [2]): 2.09 mg/kg
MIC (B. subtilis SS 127): 0.05 µg/mL (≈ 0.0681 µM)
ED50 (D. pneumoniae SS 23 [3]): 114 mg/kg
MIC (Citrobacter SS 09): > 200 µg/mL
MIC (Pr. mirabilis SS 09): > 200 µg/mL
MIC (B. anthranis SS 08): 0.4 µg/mL (≈ 0.545 µM)
Hematic levels in the rat ([4]; 2 hours, 120 min): 1.15 µg/mL
Hematic levels in the rat ([4]; 6 hours, 360 min): 0.03 µg/mL
concentration at 0.3 h ([4]; rat, blood, po, Hematic levels in the rat, 0.30 hours): 710 ng/mL
concentration at 1 h ([4]; rat, blood, po, Hematic levels in the rat, 1 hour): 1030 ng/mL
concentration at 3 h ([4]; rat, blood, po, Hematic levels in the rat, 3 hours): 1050 ng/mL
concentration at 4 h ([4]; rat, blood, po, Hematic levels in the rat, 4 hours): 370 ng/mL
concentration at 5 h ([4]; rat, blood, po, Hematic levels in the rat, 5 hours): 260 ng/mL
MIC (Kl. aerogenes SS 71): 50 µg/mL (≈ 68.1 µM)
MIC (C. albicans SS 04): 100 µg/mL (≈ 136 µM)
MIC (S. infantis SS 08): 100 µg/mL (≈ 136 µM)
MIC (H. pertussis SS 03): 0.4 µg/mL (≈ 0.545 µM)
MIC (S. lutea ATCC 9341): 0.01 µg/mL (≈ 0.0136 µM)
MIC (Staph. albus SS 03): 0.05 µg/mL (≈ 0.0681 µM)
MIC (Staph. aureus SS 09): 0.1 µg/mL (≈ 0.136 µM)
MIC (E. coli SS 05): 50 µg/mL (≈ 68.1 µM)
MIC (Strept. faecalis SS 19): 0.1 µg/mL (≈ 0.136 µM)
MIC (Citrobacter SS 05): > 200 µg/mL
MIC (S. heidelberg SS 18): 100 µg/mL (≈ 136 µM)
MIC (B. cereus ATCC 11778): 0.4 µg/mL (≈ 0.545 µM)
MIC (Br. abortus SS 7): 12 µg/mL (≈ 16.4 µM)
MIC (Ps. aeruginosa SS 10): 100 µg/mL (≈ 136 µM)
MIC (B. anthranis SS 09): 0.4 µg/mL (≈ 0.545 µM)
MIC (B. subtilis ATCC 6633): 0.025 µg/mL (≈ 0.0341 µM)
MIC (C. diphtheriae SS 19): 0.01 µg/mL (≈ 0.0136 µM)
MIC (Br. melitensis SS 19): 3 µg/mL (≈ 4.09 µM)
MIC (E. coli SS 06): 100 µg/mL (≈ 136 µM)
MIC (E. coli SS 07): 50 µg/mL (≈ 68.1 µM)
MIC [5]: 1.5 µg/mL (≈ 2.04 µM)
MIC (Staph. aureus SS 08): 0.025 µg/mL (≈ 0.0341 µM)
MIC (E. aerogenes SS 011): 100 µg/mL (≈ 136 µM)
MIC (Kl. pneumoniae SS 04): 100 µg/mL (≈ 136 µM)
MIC (H. tubercolosis SS 03): 50 µg/mL (≈ 68.1 µM)
MIC (Staph. aureus SS 07 [6]): 0.025 µg/mL (≈ 0.0341 µM)
MIC (E. cloacae SS 07): > 200 µg/mL
MIC (H. influentiae SS 02): 1.5 µg/mL (≈ 2.04 µM)
MIC [7]: 3 µg/mL (≈ 4.09 µM)
LD50 at 240 h (Acute toxicity): > 3000 mg/kg
MIC (Staph. albus SS 04): 0.05 µg/mL (≈ 0.0681 µM)
MIC (Sr. marcescens SS 03): 200 µg/mL (≈ 273 µM)
MIC (Cl. tetani SS 17): 0.4 µg/mL (≈ 0.545 µM)
MIC (N. gonorreae SS 27): 0.8 µg/mL (≈ 1.09 µM)
MIC (N. meningitidis SS 04): 0.8 µg/mL (≈ 1.09 µM)
MIC (Staph. aureus SS 10): 0.1 µg/mL (≈ 0.136 µM)
MIC (Pr. vulgaris SS 10): > 200 µg/mL

Reference: US4476120A, “Thiolic derivatives of erythromycin having therapeutic activity, and pharmaceutical compositions containing them” (Sigma Tau Indistrie Farmaceutiche Riunites, p.A, priority 1982, dated 1984)
